According to patent US7713969B2, “Compositions and methods for treatment of cancer” (ArQule, Inc., priority 2005, dated 2010):

Experiments:
[1] = system: Recombinant Protein Kinase C; experiment: Protein Kinase C kinase reaction, Histone H1, autoradiography (Example 79); assay type: biochemical; settings: 0.05, 0.5, or 10 μM, 15 minutes at room temperature
Procedure: Recombinant Protein Kinase C (Calbiochem) (100 ng) was incubated with (±)-cis-3-(5,6-dihydro-4H-pyrrolo[3,2,1-ij]quinolin-1yl)-4(1H-indol-3-yl)pyrrolidine-2,5-dione or (±)-trans-3-(5,6-dihydro-4H-pyrrolo[3,2,1-ij]quinolin-1-yl)-4(1H-indol-3-yl)pyrrolidine-2,5-dione at 0.05, 0.5, or 10 μM for 15 minutes at room temperature. Subsequently, a radioactive labeling mix in kinase buffer (20 mM Tris-HCl pH 7.5, 10 mM MgCl2) containing 20 μM ATP, 0.2 μCi/μl γ^32P-ATP, 0.2 μg/μl Histone H1 (Upstate) was added to each sample. The kinase reaction was carried out for 5 minutes at room temperature. Reaction products were analyzed by 12% SDS-PAGE and autoradiography.

[2] = system: MDA-MB-231 human breast cancer xenograft; experiment: MDA-MB-231 xenograft, intraperitoneal 160 mg/kg (Example 81); assay type: in vivo, mice; settings: 160 mg/kg intraperitoneally, q3d×10, lipiodol vehicle
Procedure: Athymic female nude mice (CRL:NU/NU-nuBR) were injected subcutaneously in the flank with MDA-MB-231 human breast cancer cells (8×10^6 cells/mouse). Prior to injection, MDA-MB-231 cells were cultured in DMEM (Invitrogen #11965-092) supplemented with 10% (v/v) heat inactivated fetal bovine serum (FBS), 1% Hepes buffer solution (Invitrogen #15630-080) and 1% Penicillin/Streptomycin (Invitrogen #15140-122) at 37° C. in 5% CO2. Tumors were allowed to grow to approximately 50 mm^3 in size. Animals were randomized into three groups of five animals per group. At day ten post injection, mice with established tumors were treated intraperitoneally with (±)-cis-3-(5,6-dihydro-4H-pyrrolo[3,2,1-ij]quinolin-1yl)-4(1H-indol-3-yl) pyrrolidine-2,5-dione (160 mg/kg), (±)-trans-3-(5,6-dihydro-4H-pyrrolo[3,2,1-ij]quinolin-1-yl)-4(1H-indol-3-yl)pyrrolidine-2,5-dione (160 mg/kg) administered in iodinated poppy seed oil (lipiodol) as the vehicle at 10 mg/ml, or vehicle control. Drug or vehicle was administered every three days for a total of ten doses (q3d×10). Tumor size was evaluated periodically during the study. For each subject, tumor volume was calculated using the formula (L×W^2)/2 where L and W were the length and width of the tumor, respectively. The arithmetic mean tumor volume was calculated for each treatment group+/−standard error of the mean (SEM). […]

NCI-H446 = experiment: Cell viability MTS assay; assay type: cell-based, human; settings: Homo sapiens, NCI-H446, 72 hours with compound
Summary of the method: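 Tetrazolium (MTS) viability read after 72 hours of compound treatment in DMEM with 15% FBS, 10 mM L-glutamine and 10 mM Hepes pH 7.5. IC50 derived by non-linear regression relative to 0.33% DMSO controls.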

[3] = system: A549 human lung cancer cells; experiment: Annexin V / propidium iodide staining (Example 84); assay type: cell-based; settings: 1.2 μM, 38 hours
Procedure: A549 human lung cancer cells in a 96-well plate (Costar 3603, 5,000/well) were treated with either A) DMSO as a control; B) 1.2 μM (−)-trans-3-(5,6-dihydro-4H-pyrrolo[3,2,1-ij]quinolin-1-yl)-4(1H-indol-3-yl)pyrrolidine-2,5-dione for 38 hours before addition of 1:200 fluorescent Annexin V (green) and 1:500 Propidium iodide (magenta, final concentration of 1 μg/mL). The labeling procedure was allowed to process at 37° C. for 20 minutes followed by image acquisition and analysis using an IC100 Image Cytometer (Beckman Coulter, Inc) with 10× amplification.
To determine whether (−)-trans-3-(5,6-dihydro-4H-pyrrolo[3,2,1-ij]quinolin-1-yl)-4(1H-indol-3-yl)pyrrolidine-2,5-dione works primarily through a cytostatic or apoptotic mechanism, cancer cells exposed to (−)-trans-3-(5,6-dihydro-4H-pyrrolo[3,2,1-ij]quinolin-1-yl)-4(1H-indol-3-yl) pyrrolidine-2,5-dione were stained with fluorescently labeled Annexin V (green fluorescence) and propidium iodide (bright magenta fluorescence). Annexin V is a well-validated reagent that specifically binds with high affinity to externalized membrane phosphatidylserine, an early marker of the onset of apoptosis, while propidium iodide is a marker for dead cells. […] (See FIG. 8)

| SMILES | Protein Kinase C kinase activity in comparison to carrier alone [1] | reduction of normalized mean tumor volume compared to vehicle treated control [2] | IC50 (NCI-H446) | apoptosis evidenced by Annexin V staining [3] | cells that co-stain with both Annexin V and propidium iodide [3] |
| --- | --- | --- | --- | --- | --- |
| O=C1NC(=O)[C@@H](c2cn3c4c(cccc24)CCC3)[C@@H]1c1c[nH]c2ccccc12 (racemic) [(±)-Trans-3-(5,6-dihydro-4H-pyrrolo[3,2,1-ij]quinolin-1-yl)-4(1H-indol-3-yl)pyrrolidine-2,5-dione] | did not reduce kinase activity | 43.5% | – | – | – |
| O=C1NC(=O)C(c2cn3c4c(cccc24)CCC3)C1c1c[nH]c2ccccc12 (single isomer, unassigned; (-)) | – | – | 581 nM | induced cells to undergo apoptosis | 10-20% |
